In patent publication US20050020593A1, “Aryl-heteroaromatic compounds, compositions comprising them and use” (Aventis Pharma, priority 2003, published 2005):
pIC50: −log10 of the molar value.

Experiments:
[1] = target: T1, Tubulin (Sus scrofa, UniProt P02550+P02554); test: Assessment of the inhibition of tubulin polymerization (turbidimetry at 350 nm); type: biochemical; conditions: tubulin purified from pig brains, 10 μM; concentration inhibiting the rate of polymerization by 50%
T1 construct: Tubulin is purified from pig brains according to published methods; from tissue; host or cells: pig brain
T1 sequence (P02550 whole entry): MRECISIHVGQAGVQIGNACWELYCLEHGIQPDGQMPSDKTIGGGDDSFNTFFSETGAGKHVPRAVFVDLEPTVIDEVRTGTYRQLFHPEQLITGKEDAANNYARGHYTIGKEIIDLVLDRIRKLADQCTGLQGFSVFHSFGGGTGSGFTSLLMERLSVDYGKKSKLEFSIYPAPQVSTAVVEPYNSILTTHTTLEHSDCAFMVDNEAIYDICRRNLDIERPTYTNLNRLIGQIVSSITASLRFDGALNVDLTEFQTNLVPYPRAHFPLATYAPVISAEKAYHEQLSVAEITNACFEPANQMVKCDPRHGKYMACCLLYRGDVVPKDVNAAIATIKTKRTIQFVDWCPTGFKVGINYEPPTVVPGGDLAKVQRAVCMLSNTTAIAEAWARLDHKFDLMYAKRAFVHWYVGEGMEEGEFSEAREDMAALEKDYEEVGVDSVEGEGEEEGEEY
T1 sequence (P02554 whole entry): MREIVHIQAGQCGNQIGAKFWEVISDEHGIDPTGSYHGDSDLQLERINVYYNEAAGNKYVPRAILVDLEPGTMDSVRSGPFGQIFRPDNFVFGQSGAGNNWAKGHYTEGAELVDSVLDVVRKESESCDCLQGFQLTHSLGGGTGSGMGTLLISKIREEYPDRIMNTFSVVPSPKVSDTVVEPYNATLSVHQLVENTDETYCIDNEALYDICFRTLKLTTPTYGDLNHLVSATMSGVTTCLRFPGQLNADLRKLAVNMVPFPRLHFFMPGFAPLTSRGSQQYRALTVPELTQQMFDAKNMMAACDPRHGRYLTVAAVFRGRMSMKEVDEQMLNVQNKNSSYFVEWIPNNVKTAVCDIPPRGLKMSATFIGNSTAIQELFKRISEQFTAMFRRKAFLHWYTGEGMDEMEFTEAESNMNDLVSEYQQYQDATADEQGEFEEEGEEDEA
Procedure: Tubulin is purified from pig brains according to published methods (Shelanski et al., 1973, Proc. Natl. Acad. Sci. USA, 70, 765-768, Weingarten et al., 1975, Proc. Natl. Acad. Sci. USA, 72, 1858-1862). Briefly, the brains are ground and centrifuged in an extraction buffer. The tubulin, present in the extract supernatant, is subjected to two successive cycles of polymerization at 37° C. and depolymerization at 4° C., before being separated from the MAPS (microtubule associated proteins) by chromatography on a phosphocellulose P11 column (Whatman). The tubulin thus isolated is more than 95% pure. It is stored in a buffer known as RB/2 30% glycerol, the composition of which is 50 mM MES-NaOH [2-(N-morpholino)ethanesulfonic acid], pH 6.8; 0.25 mM MgCl2; 0.5 mM EGTA; 30% (v/v) glycerol, 0.2 mM GTP (guanosine 5′-triphosphate).
The polymerization of the tubulin into microtubules is monitored by turbidimetry as follows: the tubulin is adjusted to a concentration of 10 μM (1 mg/ml) in the RB/2 30% glycerol buffer, to which are added 1 mM GTP and 6 mM MgCl2. The polymerization is initiated by increasing the temperature from 6° C. to 37° C. in a cuvette with 1 cm optical path length, placed in a Uvikon 931 spectrophotometer (Kontron) equipped with a thermostatically-regulated cuvette holder. The increase in turbidity of the solution is followed at 350 nm.
The products are dissolved at 10 mM in DMSO and added at variable concentrations (0.5 to 10 μM) to the tubulin solution before polymerization. The IC50 value is defined as the concentration of product which inhibits the rate of polymerization by 50%. A product with an IC50 value of less than or equal to […] is considered to be very active.

[2] = system: HCT116 cells; test: Inhibition of proliferation of the human colon tumor line HCT116 ([14C]thymidine incorporation); type: cell-based; conditions: HCT-116, 48 hours at 37° C.
Procedure: Assay for Determining the Inhibition of Proliferation of the Human Colon Tumor Line HCT116
The proliferation of HCT116 cells is evaluated by measuring the incorporation of [^14C]thymidine in the following way. The HCT116 cells (from ATCC) are cultured in a DMEM medium (Gibco) which contains 10% foetal calf serum and antibiotics (1% penicillin, 1% streptomycin). To carry out the proliferation assay, the cells are seeded into 96-well Cytostar microplates (Amersham), at a rate of 5000 cells per well. The [^14C]thymidine (0.1 μCi/well) and the products to be evaluated are then added. Variable concentrations of products up to 10 μM are used; the DMSO (solvent used to dissolve the products) should not exceed 0.5% in the medium. 48 hours after incubation at 37° C., the radioactivity incorporated into the cells is measured by counting the plates in a Tri-Lux counter (Wallac). The IC50 value is defined as the concentration of product which reduces the radioactivity by 50% compared with an untreated control. A product with an IC50 value of less than 10 μM is considered to be cytotoxic.

Question: With `COc1ccc2c(c1)cc(C(=O)N1CCN(c3cccc(Cl)c3)CC1)n2-c1ccccc1` [Example 10, [4-(3-chlorophenyl)piperazin-1-yl](5-methoxy-1-phenyl-1H-indol-2-yl)methanone] as the compound, how does the pIC50 [1] read?
Answer: 5.59

Question: What about the melting point of the same compound?
Answer: 125 °C

Question: With `COc1cc(OC)cc(N2CCN(C(=O)c3cc4ccccc4n3-c3ccccc3)CC2)c1` [Example 8, [4-(3,5-dimethoxyphenyl)piperazin-1-yl](1-phenyl-1H-indol-2-yl)methanone] as the compound, how does the pIC50 [1] read?
Answer: 5.96

Question: And the melting point?
Answer: 146 °C

Question: Which results are given for `O=C(c1cc2ccccc2n1-c1ccccc1)N1CCN(c2cccc(Cl)c2)CC1` [Example 1, [4-(3-chlorophenyl)piperazin-1-yl](1-phenyl-1H-indol-2-yl)methanone]?
Answer: pIC50 [1]: 6.10; pIC50 [2]: 7.12

Question: What does the source list for `O=C(C1=Nc2ccc(Cl)cc2C1c1ccccc1)N1CCN(c2cccc(Cl)c2)CC1` (stereo not drawn) [Example 11, [4-(3-chlorophenyl)piperazin-1-yl](5-chloro-3-phenyl-1H-indol-2-yl)methanone]?
Answer: pIC50 [1]: 6.10; melting point: 188 °C

Question: With `O=C(c1c(-c2ccccc2)sc2ccccc12)N1CCN(c2cccc(Cl)c2)CC1` [Example 4, [4-(3-chlorophenyl)piperazin-1-yl](2-phenylbenzo[b]thiophen-3-yl)methanone] as the compound, how does the pIC50 [1] read?
Answer: 5.96

Question: What about the pIC50 [2] of the same compound?
Answer: 6.00

Question: For `COc1cc(OC)cc(N2CCN(C(=O)c3cc4n(c3-c3ccccc3)CSC4)CC2)c1` [Example 14, [4-(3,5-dimethoxyphenyl)piperazin-1-yl](5-phenyl-1H-pyrrolo-[1,2-c]thiazol-6-yl)methanone], which melting point is on record?
Answer: 98 °C

Question: With `COc1cc(OC)cc(N2CCN(C(=O)c3c4ccccc4nn3-c3ccccc3)CC2)c1` [Example 3] as the compound, how does the pIC50 [1] read?
Answer: 6.30

Question: What about the pIC50 [2] of the same compound?
Answer: 8.01

Question: With `COc1cc(OC)cc(N2CCN(C(=O)c3cc4cc(OC)ccc4n3-c3ccccc3)CC2)c1` [Example 9, [4-(3,5-dimethoxyphenyl)piperazin-1-yl](5-methoxy-1-phenyl-1H-indol-2-yl)methanone] as the compound, how does the pIC50 [1] read?
Answer: 5.92

Question: And the melting point?
Answer: 165 °C

Question: With `O=C(c1c2ccccc2nn1-c1ccccc1)N1CCN(c2cccc(Cl)c2)CC1` [Example 2] as the compound, how does the pIC50 [1] read?
Answer: 6.10

Question: And the pIC50 [2]?
Answer: 8.22

Question: With `NC(=O)c1cccc(N2CCN(C(=O)c3cc4ccccc4n3-c3ccccc3)CC2)c1` [Example 7, [4-(3-carboxamidophenyl)piperazin-1-yl](1-phenyl-1H-indol-2-yl)methanone] as the compound, how does the pIC50 [1] read?
Answer: 6.05
